Test results reported in patent publication US12558337B2, “Formulations comprising melflufen” (ON[…], priority 2019, dated 2026).
Where a name gives a salt, the structure may show the parent alone.

Assay: Stability of liquid formulations containing a melflufen salt and propylene glycol at room temperature (HPLC-MS)
Format: physicochemical
Conditions: for Purity of melfufen in the liquid formulation containing a melfufen salt and propylene glycol at RT: 20 mg/mL in propylene glycol, RT (20-25° C.); for stability on storage: in propylene glycol, room temperature (RT), over 7 weeks
Method: The solubility and stability of ethanesulfonic acid, p-toluenesulfonic acid and hydrochloric acid salts of melflufen in propylene glycol were investigated. 10 mg of each melflufen salt was transferred to transparent 4 mL vials and propylene glycol (Merck Lot # K51750378936, 1.07478.2500) was added to a concentration of 20 mg/mL. The vials were shaken for a short time and stored at room temperature (RT, 20-25° C.).
The stability of the melflufen salt solutions were analysed at weekly time points by Analytical HPLC-MS using an Agilent 1100 series Liquid Chromatograph/Mass Selective Detector (MSD) (Single Quadrupole) equipped with an electrospray interface and a UV diode array detector. Analysis was performed by using an ACE 3 C8 (3.0×50 mm) column with a gradient of 10-97% acetonitrile in 0.1% aqueous TFA over 3 min and a flow of 1 mL/min. UV was monitored at 305 nm. At each time point (0, 1, 2, 3, 4, 5, 6 and 7 weeks) 10 μL of the melflufen solution was diluted with 490 μL of acetonitrile before HPLC-MS analysis.

Structure (SMILES) | Purity of melfufen in the liquid formulation containing a melfufen salt and propylene glycol at RT (0 weeks) [% relative peak area] | Purity of melfufen in the liquid formulation containing a melfufen salt and propylene glycol at RT (1 week) [% relative peak area] | Purity of melfufen in the liquid formulation containing a melfufen salt and propylene glycol at RT (2 weeks) [% relative peak area] | Purity of melfufen in the liquid formulation containing a melfufen salt and propylene glycol at RT (3 weeks) [% relative peak area] | Purity of melfufen in the liquid formulation containing a melfufen salt and propylene glycol at RT (4 weeks) [% relative peak area] | Purity of melfufen in the liquid formulation containing a melfufen salt and propylene glycol at RT (5 weeks) [% relative peak area] | Purity of melfufen in the liquid formulation containing a melfufen salt and propylene glycol at RT (6 weeks) [% relative peak area] | Purity of melfufen in the liquid formulation containing a melfufen salt and propylene glycol at RT (7 weeks) [% relative peak area] | stability on storage
CCOC(=O)[C@H](Cc1ccc(F)cc1)NC(=O)[C@@H](N)Cc1ccc(N(CCCl)CCCl)cc1.CCS(=O)(=O)O [melflufen ethanesulfonic acid salt, ethanesulfonic acid;ethyl (2S)-2-[[(2S)-2-amino-3-[4-[bis(2-chloroethyl)amino]phenyl]propanoyl]amino]-3-(4-fluorophenyl)propanoate] | 100 | 95 | 94 | 93 | 94 | 89 | 88 | 87 | good stability
CCOC(=O)[C@H](Cc1ccc(F)cc1)NC(=O)[C@@H](N)Cc1ccc(N(CCCl)CCCl)cc1 [melflufen hydrochloric acid salt, L-Melphalanyl-4-fluoro-L-phenylalanine ethyl ester, reference compound] | 100 | 100 | 95 | 94 | 92 | 89 | 87 | 85 | good stability
CCOC(=O)[C@H](Cc1ccc(F)cc1)NC(=O)[C@@H](N)Cc1ccc(N(CCCl)CCCl)cc1.Cc1ccc(S(=O)(=O)O)cc1 [melflufen p-toluenesulfonic acid salt, Ethyl (2S)-2-[[(2S)-2-amino-3-[4-[bis(2-chloroethyl)amino]phenyl]propanoyl]amino]-3-(4-fluorophenyl)propanoate;4-methylbenzenesulfonic acid] | 100 | 96 | 95 | 93 | 91 | 89 | 88 | 87 | good stability
